The values below come from ChEMBL document CHEMBL4616622, “HSP70 induction by bleomycin metal core analogs” (Bioorg Med Chem Lett, 2020).

Active and inactive are the calls of the source. No cut-off for these calls is given here.

Series [1] deals with PC-12. Description: Induction of HSP70 expression in rat PC12 cells at 10 uM incubated for 4 hrs by Western blot analysis. It is filed as functional, cell-based. For orientation: A western blot detects proteins with antibodies after separation by electrophoresis.
For series [2], the system named is PC-12. Description: Induction of HSP70 expression in rat PC12 cells at 5 to 30 uM incubated for 4 hrs by Western blot analysis. It is filed as functional, cell-based.
Series [3] deals with PC-12. Description: Induction of HSP70 expression in rat PC12 cells at 10 uM incubated for 4 hrs in presence of human betaNGF by Western blot analysis. It counts as functional, cell-based.
In series [4] the test system is PC-12. Description: Cytotoxicity against rat PC12 cells assessed as reduction in cell viability at 30 uM incubated for 1 day by MTT assay relative to control. It counts as cell-based. To be noted: pc-12, 24 h.
Series [5] concerns PC-12. Description: Induction of HSP70 in rat PC12 cells assessed as upregulation of HSP70 mRNA at 10 uM incubated for 4 hrs by qRT-PCR analysis. It counts as cell-based. (In general: Real-time PCR tracks product formation cycle by cycle.)
In series [6] the test system is PC-12. Description: Induction of HSP70 expression in rat PC12 cells at 10 uM by Western blot analysis. It is filed as functional, cell-based. The following applies: TDE = time-dependent effect.
The test system of series [7] is PC-12. Description: Induction of HSP70 expression in rat PC12 cells at 7.5 uM incubated for 4 hrs by Western blot analysis. It counts as functional, cell-based.
Series [8] concerns PC-12. Description: Induction of HSP70 expression in rat PC12 cells at 10 uM incubated for 24 hrs by Western blot analysis. It counts as functional, cell-based.
Series [9] has as its system PC-12. Description: Induction of HSP70 expression in rat PC12 cells at 10 to 20 uM incubated for 4 hrs by Western blot analysis. It counts as functional, cell-based.

As to `COC(=O)[C@H](Cc1cn(C)cn1)NCc1cc(N(C)C)cc(CN[C@@H](Cc2cn(C)cn2)C(=O)OC)n1`, in series [1], the outcome was inactive.

Consider `COC(=O)[C@H](Cc1c[nH]cn1)NCc1cc(N(C)C)cc(CN[C@@H](Cc2cn(Cc3ccccc3)cn2)C(=O)OC)n1`, for which the result in [1] was inactive. In the case of `COC(=O)[C@H](Cc1c[nH]cn1)NCc1cc(N(C)C)cc(CN[C@@H](Cc2cn(C)cn2)C(=O)OC)n1`, the result in series [1] was inactive. Turning to `COC(=O)[C@H](Cc1c[nH]cn1)NCc1cccc(CN[C@@H](Cc2cn(C(c3ccccc3)(c3ccccc3)c3ccccc3)cn2)C(=O)OC)c1`, in [1], the outcome was inactive. In the case of BLEOMYCIN, the result in [1] and in series [2] was inactive.

For `COC(=O)[C@H](Cc1c[nH]cn1)NCc1cc(N(C)C)cc(CN[C@@H](Cc2cn(C(c3ccccc3)(c3ccccc3)c3ccccc3)cn2)C(=O)OC)n1`, the outcome in series [1], in series [3], in series [5], in series [8] and in series [9] was Active. In addition, the Activity in [4] is > 50%; in series [6], “Tde”. Also, the result in series [7] was inactive. For the compound TEPRENONE, the outcome in [1] was inactive. Regarding `COC(=O)[C@H](Cc1c[nH]cn1)NCc1cccc(CN[C@@H](Cc2cn(C(c3ccccc3)(c3ccccc3)c3ccccc3)cn2)C(=O)OC)n1`, the outcome in series [1] and in series [3] was Active. For the compound `COC(=O)[C@H](Cc1cn(C(c2ccccc2)(c2ccccc2)c2ccccc2)cn1)NCc1cc(N(C)C)cc(CN[C@@H](Cc2cn(C(c3ccccc3)(c3ccccc3)c3ccccc3)cn2)C(=O)OC)n1`, the outcome in series [1] was inactive. For `COC(=O)[C@H](Cc1cn(Cc2ccccc2)cn1)NCc1cc(N(C)C)cc(CN[C@@H](Cc2cn(Cc3ccccc3)cn2)C(=O)OC)n1`, in series [1], the result was inactive.
